Measurements published in patent US20230050846A1, “TREATMENT OF HEPATIC AND CARDIOVASCULAR DISORDERS” (LIFESEARCH, priority 2019, published 2023).

Columns and labels:
[1] = biological target: T1, human F1Fo-ATPase (Homo sapiens, UniProt P06576); assay: F1-ATPase activity assay (NADH-coupled, purified enzyme); assay type: biochemical; conditions: 1 μM
T1 construct: Human F1Fo-ATPase was purified from HepG2 cells by immunocapture; endogenous in cells; host or cells: HepG2 cells; complex isolated by immunocapture with anti-ATP synthase antibody 12F4AD8AF8 (#ab109867, Abcam)
Description: The mature human IF1 protein (SEQ ID NO: 5) was chemically synthesized by GenScript (Piscataway, N.J., USA) at >80% purity. The peptides derived from the mature human IF1 sequence (IF1-1-60, IF1-10-56, IF1-10-47) were produced by BachemAG (Bubendorf, Switzerland) with >90% purity.
Human F1Fo-ATPase was purified from HepG2 cells by immunocapture using mouse monoclonal anti-ATP synthase antibody (12F4AD8AF8, #ab109867, Abcam) according to manufacturer's instructions.
Measurement of F1-ATPase activity was assayed as previously described. Briefly, 10 μg of F1Fo-ATPase was prepared into 50 μL of activity assay buffer (10 mM HEPES, 150 mM NaCl, 5 mM KCl, 5 mM MgCl2, 0.5 mM phosphoenolpyruvate, 250 μM NADH, 100 μM ATP, 20 U lactate dehydrogenase, 120 U pyruvate kinase). The mixture was incubated at 37° C. for 30 min. Then the F1-ATPase activity was measured in a 96-well microplate by adding 5 μL of the mixture (1 μg of F1Fo-ATPase per point) per well to 200 μL of activity assay buffer at 37° C., and by adding 5 μL of buffer with or without peptide (1 μM each). The reduction in the absorbance of NADH was measured at 340 nm for 5 min with a Varioskan™ Flash Multimode Reader (Thermo Fisher Scientific). A slope was calculated for each well and the results expressed as a percentage of the control slope.

[2] = test system: HepG2 cells; assay: HDL endocytosis assay in hepatocytes; assay type: cell-based, human; conditions: for effect on HDL endocytosis: 1 μM, HDL-Alexa568 50 μg/mL, 25 min, abolished by IF1 1 μM
Description: HepG2 cells were seeded on 96-well plates at 50,000 cells/well. HDL3 (d 1.12-1.21) were isolated from plasma of healthy human donors and referred to as HDL. HDL was fluorescently labeled with AlexaFluor®568 dye (A10238, Thermofisher Scientific) according the instructions of manufacturer. 1 h30 before the assay, the cells were serum starved for 1 h30 in order to stabilize nucleotide secretion. Cells were incubated with inhibitors (H49K, 1 μM) for 10 min before treatment with the different peptides (1 μM) or apoA-I (10 μg/ml) purified from human plasma. 5 min after peptide treatment, endocytosis was initiated by 50 μg/mL of AlexaFluor568®-labelled HDL. The same experiment was performed with a […] excess of unlabelled HDL (2.5 mg/mL) to determine the nonspecific fluorescence signal. After 25 min at 37° C., cells were then washed in serum-free DMEM and extracellular membrane-bound HDL was disassociated by incubating cells at 4° C. in serum-free DMEM for 90 min. Following washes, cells were lysate in NaOH 0.1M SDS 1% during 2 h, lysates were transferred in a black 96-wells plate and fluorescence was recorded at 568 nm (Varioscan flash). Fluorescence for each condition was substrate with the value obtained in unlabelled HDL condition, and results were expressed as the fold change as compared with the basal condition (untreated cells).

[3] = test system: HUVEC cells; assay: Endothelial nitric oxide (NO) production, DAF-FM-DA probe; assay type: cell-based, human; conditions: apoA-I; abolished by IF1
Description: Nitric oxide (NO) was detected using a DAF-FM-DA probe (D2321, Sigma-Aldrich) which forms fluorescent benzotriazole when it reacts with NO. HUVEC cells (PromoCell #C-12203) were seeded in 96-well plates (10,000 cells per well) and cultured in endothelial cell basal medium 2 (PromoCell #C-22211) supplemented with GM2 supplement Mix (PromoCell #C-39211), until 80-90% confluence. The medium was then replaced with M-199 without serum for 4 h, and the cells were incubated for 45 min with DAF-FM-DA (5 μM) diluted in PBS. Cells were treated with increasing concentrations of the different peptides or apoA-I (10 μM) purified from human plasma or histamine (1 mM) as positive control. In another set of experiments, cells were incubated with inhibitors (IF1, 1 μM) for 10 min before treatment with peptides or apoA-I. The fluorescence was recorded for 30 min (λex=495 nm, λem=515 nm) with a Tecan Flash Multimode Reader (Thermo Fisher Scientific). Fluorescence for each condition was compared with the value obtained in untreated cells, and results were expressed as the fold change as compared with the basal condition (untreated cells).

[4] = biological target: T2, ecto-F1-ATPase (HepG2 cells) (Homo sapiens, UniProt P06576); assay: ecto-F1-ATPase activity: extracellular ADP content, luciferin-luciferase assay; assay type: cell-based; conditions: HepG2, 5 min, apoA-I 10 μg/mL; effect blunted by IF1
T2 construct: host or cells: HepG2
Description: The human hepatocyte cell line HepG2 was obtained from the American Type Culture Collection (#HB-8065). HepG2 were cultured in Dulbecco's Modified Eagle's Medium (DMEM)—high glucose (D0822, Sigma-Aldrich) supplemented with 10% fetal bovine serum (10270098, Life technologies), 1% Penicillin-Streptomycin solution (P0781, Sigma-Aldrich). HepG2 cells were seeded on 24-well plates at 75,000 cells/well (Day 0). After 24 hours of growing, cells were serum starved for 24 h in order to synchronize cell cycles (Day 1) and then replaced additional 24 h in complete cell growth medium (Day 2). On day 3, cells were washed and equilibrated in fresh DMEM—high glucose without red phenol for 1 h (D1145, Sigma-Aldrich).
The cells were then treated 5 min with different concentration of peptide of formula (I) (0.1 to 5 μM), the peptide of formula (II) (1 μM), SCR (1 μM), SCR-K-16 (1 μM) or apoA-I (10 μg/mL) purified from human plasma.
Specific ecto-F1-ATPase activation was assessed in the presence of IF1 protein (1 μM), a natural inhibitor of F1-ATPase that interacts with the β-subunit to inhibit the ATP hydrolysis activity [5].
Supernatants were then collected and centrifuged (10,000 g, 5 min, 4° C.) and processed for ADP and ATP measurement. For ADP measurement, ADP was converted into ATP in 150 mM NaCl, 5 mM KCl, 2 mM MgCl2, pH 7.5 buffer containing 0.5 mM phosphoenolpyruvate (PEP) and pyruvate kinase (PK, 6 U per point for 15 min at 37° C.). For ATP measurement, 100 μl of sample was analyzed using the ATP bioluminescence assay kit CLS II (Roche Diagnostics). Samples were added to the ATP assay mixture and luminescence was measured in a microplate reader Infinite F500 (Tecan, Switzerland) for 1000 ms. The ATP standard curve was produced in the same medium as the samples and in the 10^−5 to 10^−10 M concentration range. The ADP concentration was then calculated as the ATP concentration following ADP conversion minus the basal ATP concentration. Data are expressed as nanomoles of ADP produced.

| stimulation of F1-ATPase activity [1] | extracellular ADP concentration [4] | Substance | effect on HDL endocytosis [2] | NO production by endothelial cells [3] | stimulation of HDL endocytosis compared to non-stimulated cells ([2]; apoA-I 10 μg/mL, abolished by IF1) |
| --- | --- | --- | --- | --- | --- |
| no effect | – | CH3CO-[SEQ ID NO: 2]-NH2 (Ac-GEAKSYAEKGEARGERGTKGEFRIFKREATD-NH2) [SCR, reference compound] | no effect | – | – |
| no effect | – | CH3CO-[SEQ ID NO: 2]-K-[palmitoyl]-NH2 (Ac-GEAKSYAEKGEARGERGTKGEFRIFKREATD-{K(palmitoyl)-NH2}) [SCR-K-C16, palmitoylated scramble peptide, negative control, reference compound] | no effect | – | – |
| – | increased | apoA-I: Apolipoprotein A-I purified from human plasma, known F1-ATPase activator, positive control [reference compound] | – | stimulated | about 45% |
